Key:
[1] = Stability of TMZ in dextran phosphate gel of pH 7.2-7.4 (prior art BY 11838 C1); assay type: physicochemical
Source text: BY 11838 C1 discloses a combined treatment method for malignant brain tumors. The method comprises surgical excision of the tumor tissue followed by application of TMZ comprised by high substituted dextran phosphate gel of pH 7.2-7.4. The dry weight ratio of TMZ/high substituted dextran phosphate in the preparation is 0.03:1.0. The freeze-dried gel is reconstituted by the addition of sterile water and pH adjusted prior to use, then applied to the wound surface. […] In addition, the structure of highly substituted dextran phosphate contains a large number of di- and tri-substituted phosphoric acid groups, which provide additional cross-linking of macromolecules, which reduces the ability to absorb water and limits the amount of TMZ to 30 mg/g in the gel of highly substituted dextran phosphate. The low concentration of TMZ in the composition implies that the volume must be increased to administrate higher dose of the substance, i.e., the prodrug TMZ, and thus also the amount highly substituted dextran phosphates administered is increased. A 2- or 3-fold increase in the amount of highly substituted dextran phosphates can lead to undesirable reactions associated with the duration of the biodegradation process. […]

[2] = oral administration; cited from earlier work

Cn1nnc2c(C(N)=O)ncn2c1=O [TMZ, 4-methyl-5-oxo-2,3,4,6,8-pentazabicyclo[4.3.0]nona-2,7,9-triene-9-carboxamide]
stability of TMZ (hydrolysis to AIC) [1]: decomposes
half-life [2]: 1.8 h
time to peak plasma concentration [2]: 0.7 h
